Legend:
[1] = Analgesic effect of SOS1 inhibitor combined with Tanezumab; type: in vivo
[2] = tested on: knee osteoarthritis pain model; conditions: rats, 10 mg/kg; cited from earlier work
[3] = tested on: NGF stimulated pERK1/2 activation in PC-12 cells; assay: Tanezumab / SOS1 inhibitor combination in the NGF stimulated pERK1/2 PC-12 assay; type: cell-based, rat
Method: The combined inhibitory effect of a selective, small molecule SOS1 inhibitor and known antibody based NGF inhibitor, Anti-NGF was monitored via an HTRF readout measuring phosphorylation of ERK1/2 by NGF activation. All assays were performed in rat adrenal PC-12 cells (Merck) that had been serum-starved for a period of 24 hours in RPMI-1640 growth medium (Gibco) supplemented with 1% heat-inactivated horse serum (Merck), 0.5% heat-inactivated fetal bovine serum (FBS), 1% penicillin-streptomycin and 2 mM L-Glutamine unless specified otherwise. Reagents from the HTRF commercial kit (Cisbio) were prepared according to the manufacturer's instructions.
PC-12 cells were isolated from routine cellular culture and plated at an appropriate cell density (typically 25,000 cells per well) in 384-well plates for 24 hours under serum-starved conditions. Working preparations of varying Anti-NGF (Abcam) concentrations and a fixed NGF concentration were prepared in serum-starved media and pre-incubated for 30 minutes (37° C./5% CO2). […] A 2-hour incubation at room temperature was performed prior to fluorescence signal being measured in a microplate reader (PHERAstar FSX, BMG Labtech).
Percentage inhibition values were calculated per compound concentration by normalising the sample data to the high and low controls used within each plate (+/−250 ng/mL NGF respectively). […] Response data were then plotted against the molar logarithm for each SOS1 inhibitor compound concentration together with the determined fit results for display purposes. […] The mean percentage inhibition value calculated for both the top and bottom concentration of SOS1 inhibitor compound tested per Anti-NGF:NGF combination was extracted and compared in tabular form across the different Anti-NGF:NGF combinations tested.
The ability of an NGF inhibitor Tanezumab in combination with a SOS1 inhibitor to treat pain was measured in the Inhibition of Nerve Growth Factor (NGF) stimulated phospho-Extracellular Regulated Kinase 1 and 2 (pERK1/2) activation in the PC-12 cell line assay.

In the case of “Tanezumab: an example of an anti-NGF antibody”, the analgesic effect ([1]; 0.3 mg/kg Tanezumab in combination with low doses of a SOS1 inhibitor) is given as “significant analgesic effect”, the “increase in analgesia versus dose” value ([1]; fixed dose SOS1 inhibitor, varied antibody dose) is given as “efficacy is dose related” and the efficacy [2] is given as “shows efficacy”. The efficacy ([3]; Tanezumab 50 nM in combination with SOS1 inhibitor 500 nM) was about 96%, the efficacy ([3]; Tanezumab alone, 50 nM) was 90% and the efficacy ([3]; tanezumab alone, 200 nM) was 100%.

From patent US20250325572A1, “TREATMENTS FOR PAIN” (Sevenless Therapeutics Limited, priority 2022, published 2025)
